The record followed here is US11628181B2, “N4-hydroxycytidine and derivatives and anti-viral uses related thereto” (Emory University, priority 2014, dated 2023).

Each structure is given as a SMILES string. pEC50: −log10 of the molar value. Converted amounts (≈) assume the structure as drawn. Read-outs that look alike come from different tables or passages of the source.

The subject of one data set is SARS Coronavirus Urbani. Put plainly: microbe, parasite or virus in culture. It counts as cell-based. As to conditions: Severe acute respiratory syndrome-related coronavirus, Vero 76.
Data set [1] in a line: in vitro. The following applies: African green monkey.
The test system of the next data set is Norovirus GT1. Kind of data set: Norovirus GT1 antiviral screening in HG23. The class given is cell-based.
A short description of data set [2]: Cytotoxicity (CC50) in HG23, norovirus screening. It counts as cell-based. The following applies: human, HG23 cells; HG23, norovirus screen.
Data set [3] can be described thus: in vitro.
In the next data set the test system is CHIKV. Kind of data set: microbe, parasite or virus in culture. The following applies: Chikungunya virus.
The test system of the next data set is U2OS cell line. Put plainly: Cell viability, U2OS cell line (Chikungunya screen).
The next data set relates to Chikungunya virus. Kind of data set: Chikungunya virus (MOI 0.5) viral inhibition in U2OS cell line. It counts as cell-based. The following applies: for inhibition at 10 µM: read-out: Viral Inh. 10 uM; for inhibition at 50 µM: read-out: Viral Inh. 50 uM.
In another data set the test system is HeLa. The following applies: human.
In data set [4] the test system is VEEV. Kind of data set: microbe, parasite or virus in culture. It counts as cell-based. As to conditions: Venezuelan equine encephalitis virus, HeLa; for inhibition at 10 µM: read-out: Viral Inh. 10 uM; for inhibition at 50 µM: read-out: Viral Inh. 50 uM.
Data set [5] concerns VEEV. Kind of data set: microbe, parasite or virus in culture. The class given is cell-based. As to conditions: Venezuelan equine encephalitis virus, Astrocyte; for inhibition at 10 µM: read-out: Viral Inh. 10 uM; for inhibition at 50 µM: read-out: Viral Inh. 50 uM.
In a further data set the test system is Vero. Kind of data set: Cell viability, Vero (MERV screen). The class given is cell-based.
The next data set deals with MERV. Put plainly: MERV (MOI 0.4) viral inhibition in Vero. The class given is cell-based. The following applies: MERV MOI 0.4, Vero; for inhibition at 10 µM: read-out: Viral Inh. 10 uM; for inhibition at 50 µM: read-out: Viral Inh. 50 uM.

In the data set with SARS Coronavirus Urbani, `CCCCCCCCC(=O)ONc1ccn([C@@H]2O[C@H](CO)C(O)C2O)c(=O)n1` (some centres unmarked) returned an EC50 of 0.19 µg/mL (≈ 0.476 µM). In the data set “in vitro [1]”, this molecule returned a CC50 of 36 µg/mL (≈ 90.1 µM).

As for `CONc1ccn([C@@H]2O[C@H](CO)C(O)C2O)c(=O)n1` (some centres unmarked), the EC50 in the data set on SARS Coronavirus Urbani is > 100 µg/mL. Also, the CC50 in “in vitro [1]” was > 100 µg/mL.

For the molecule `CC1(O)C(O)[C@@H](CO)O[C@H]1n1ccc(NO)nc1=O` (some centres unmarked), the EC50 in the data set with SARS Coronavirus Urbani and with Norovirus GT1 was > 100 µg/mL throughout. In addition, the CC50 (in the data set “in vitro [1]”; in data set [2]) was > 100 µg/mL throughout.

Consider `CCCCCCCNC(=O)OC[C@H]1O[C@@H](n2ccc(NO)nc2=O)C(O)[C@H]1O` (some centres unmarked) [EIDD-02475-01], for which, in “in vitro [3]”, the CC50 was > 500 µM. Moreover, the pEC50 in the data set with CHIKV was < 4.11.

Consider `CCCCCCCCC(=O)OC[C@H]1O[C@@H](n2ccc(NO)nc2=O)C(O)[C@H]1O` (some centres unmarked) [EIDD-02476-01], for which the CC50 in “in vitro [3]” was 154 µM. The same molecule showed a pEC50 in the data set with CHIKV of 6.52.

`CCOP(=O)(OCC)OC[C@H]1O[C@@H](n2ccc(NO)nc2=O)[C@@H](O)C1O` (some centres unmarked) [EIDD-02503-01]: in “in vitro [3]”, the CC50 is > 500 µM. Also, in the data set with CHIKV, the pEC50 was < 4.11.

On to `O=c1nc(NO)cc[nH]1` [EIDD-02504-01], for which the CC50 in the data set “in vitro [3]” is > 500 µM. For the same molecule, the pEC50 with CHIKV was < 4.11.

As for `O=c1nc(NO)ccn1[C@@H]1O[C@H](CO)C(O)C1O` (some centres unmarked) [drawing 68], the EC50 was < 0.1 µg/mL in the data set on SARS Coronavirus Urbani and > 100 µg/mL with Norovirus GT1. The CC50 in “in vitro [1]” was 36 µg/mL (≈ 139 µM); in data set [2] it was > 100 µg/mL.

For `CCCCCCCOC(=O)ONc1ccn([C@@H]2O[C@H](CO)C(O)C2O)c(=O)n1` (some centres unmarked) [drawing 70], in the data set on SARS Coronavirus Urbani, a half-maximal effect (EC50) was put at 0.28 µg/mL (≈ 0.698 µM). The CC50 in the data set “in vitro [1]” is > 100 µg/mL.

For the molecule `O=c1nc(NO)ccn1[C@@H]1O[C@H](CO)C(O)C1O` (some centres unmarked) [drawing 73], in the data set on U2OS cell line, the “Cell Viability 10 uM” value is 97% ± 5% (n = 4) and the “Cell Viability 50 uM” value was 79% ± 10% (n = 4). In addition, in the data set on Chikungunya virus, the inhibition at 10 µM was 80% and the inhibition at 50 µM came to 100%.

Turning to `CCCCCCCOC(=O)ONc1ccn([C@@H]2O[C@H](CO)C(O)C2O)c(=O)n1` (some centres unmarked) [drawing 74], in the data set with U2OS cell line, the “Cell Viability 10 uM” value was 93% ± 4% (n = 4) and the “Cell Viability 50 uM” value is 79% ± 8% (n = 4). In the data set with Chikungunya virus, the inhibition at 10 µM was 72% and the inhibition at 50 µM amounted to 98%.

`CC(C)OC(=O)[C@H](C)NP(=O)(OC[C@H]1O[C@@H](n2ccc(NO)nc2=O)C(O)C1O)Oc1ccccc1` (some centres unmarked) [drawing 75]: in the data set on U2OS cell line, the “Cell Viability 10 uM” value was 99% ± 6% (n = 4) and the “Cell Viability 50 uM” value is reported as 99% ± 8% (n = 4). In the data set with Chikungunya virus, the inhibition at 10 µM worked out at 3% and the inhibition at 50 µM is 36%.

Regarding `O=c1nc(NO)c(F)cn1[C@@H]1O[C@H](CO)C(O)C1O` (some centres unmarked) [drawing 76], in the data set with U2OS cell line, the “Cell Viability 10 uM” value is listed as 81% ± 4% (n = 4) and the “Cell Viability 50 uM” value was 53% ± 2% (n = 4). In addition, in the data set on Chikungunya virus, the inhibition at 10 µM is 8% and the inhibition at 50 µM is 51%.

With `CCCCCCCNC(=O)ONc1ccn([C@@H]2O[C@H](CO)C(O)C2O)c(=O)n1` (some centres unmarked) [drawing 77], in the data set with U2OS cell line, the “Cell Viability 10 uM” value is on record as 105% ± 2% (n = 4) and the “Cell Viability 50 uM” value is 96% ± 11% (n = 4). Also, in the data set with Chikungunya virus, the inhibition at 10 µM was 14% and the inhibition at 50 µM worked out at 70%.

Turning to `O=c1nc(NO)ccn1[C@@H]1O[C@H](CO)C(O)C1O` (some centres unmarked) [drawing 78], in the data set with HeLa, the “Cell Viability 10 uM” value is 116% ± 24% (n = 4) and the “Cell Viability 50 uM” value is reported as 61% ± 8% (n = 4). Moreover, in the data set with VEEV [4], the pEC50 is 5.91, the inhibition at 10 µM turned out to be 100% and the inhibition at 50 µM came out at 100%.

Take `CCCCCCCOC(=O)ONc1ccn([C@@H]2O[C@H](CO)C(O)C2O)c(=O)n1` (some centres unmarked) [drawing 79]: in the data set on HeLa, the “Cell Viability 10 uM” value is on record as 116% ± 20% (n = 4) and the “Cell Viability 50 uM” value is on record as 85% ± 8% (n = 4). For the same molecule, in the data set with VEEV [4], the pEC50 was 6.24, the inhibition at 10 µM was 100% and the inhibition at 50 µM stood at 100%.

With `CC(C)OC(=O)[C@H](C)NP(=O)(OC[C@H]1O[C@@H](n2ccc(NO)nc2=O)C(O)C1O)Oc1ccccc1` (some centres unmarked) [drawing 80], in the data set with HeLa, the “Cell Viability 10 uM” value is reported as 137% ± 16% (n = 4) and the “Cell Viability 50 uM” value is on record as 134% ± 16% (n = 4). In addition, in the data set with VEEV [4], the pEC50 was 4.79, the inhibition at 10 µM stood at 73% and the inhibition at 50 µM was determined as 100%.

As to `O=c1nc(NO)c(F)cn1[C@@H]1O[C@H](CO)C(O)C1O` (some centres unmarked) [drawing 81], in the data set on HeLa, the “Cell Viability 10 uM” value is given as 55% ± 4% (n = 4) and the “Cell Viability 50 uM” value was 36% ± 2% (n = 4). In addition, in the data set on VEEV [4], the inhibition at 10 µM came out at 61% and the inhibition at 50 µM worked out at 98%.

For the molecule `CCCCCCCNC(=O)ONc1ccn([C@@H]2O[C@H](CO)C(O)C2O)c(=O)n1` (some centres unmarked) [drawing 82], in the data set with HeLa, the “Cell Viability 10 uM” value is 151% ± 16% (n = 4) and the “Cell Viability 50 uM” value is reported as 126% ± 7% (n = 4). In the data set with VEEV [4], the pEC50 was 5.22, the inhibition at 10 µM amounted to 93% and the inhibition at 50 µM amounted to 100%.

With `O=c1nc(NO)ccn1[C@@H]1O[C@H](CO)C(O)C1O` (some centres unmarked) [drawing 83], in the data set on VEEV [5], the inhibition at 10 µM was found to be 99% and the inhibition at 50 µM worked out at 100%. In the data set on Astrocytes, the “Cell Viability 10 uM” value is reported as 98% ± 12% (n = 3) and the “Cell Viability 50 uM” value is reported as 86% ± 5% (n = 3).

Turning to `CCCCCCCOC(=O)ONc1ccn([C@@H]2O[C@H](CO)C(O)C2O)c(=O)n1` (some centres unmarked) [drawing 84], in the data set with VEEV [5], the inhibition at 10 µM came out at 94% and the inhibition at 50 µM worked out at 100%. In the data set on Astrocytes, the “Cell Viability 10 uM” value is 99% ± 9% (n = 3) and the “Cell Viability 50 uM” value is recorded as 94% ± 10% (n = 3).

Take `CC(C)OC(=O)[C@H](C)NP(=O)(OC[C@H]1O[C@@H](n2ccc(NO)nc2=O)C(O)C1O)Oc1ccccc1` (some centres unmarked) [drawing 85]: in the data set with VEEV [5], the inhibition at 10 µM is 49% and the inhibition at 50 µM was determined as 96%. In addition, in the data set with Astrocytes, the “Cell Viability 10 uM” value is reported as 102% ± 16% (n = 3) and the “Cell Viability 50 uM” value is given as 100% ± 17% (n = 3).

`CCCCCCCNC(=O)ONc1ccn([C@@H]2O[C@H](CO)C(O)C2O)c(=O)n1` (some centres unmarked) [drawing 87]: in the data set on VEEV [5], the inhibition at 10 µM came to 51% and the inhibition at 50 µM came to 37%. Further, in the data set on Astrocytes, the “Cell Viability 10 uM” value is reported as 98% ± 12% (n = 3) and the “Cell Viability 50 uM” value is recorded as 85% ± 19% (n = 3).

As to `O=c1nc(NO)ccn1[C@@H]1O[C@H](CO)C(O)C1O` (some centres unmarked) [drawing 88], in the data set on Vero, the “Cell Viability 10 uM” value was 75% ± 6% (n = 4) and the “Cell Viability 50 uM” value is recorded as 47% ± 3% (n = 4). Also, in the data set on MERV, the inhibition at 10 µM turned out to be 99% and the inhibition at 50 µM is 100%.

With `CCCCCCCOC(=O)ONc1ccn([C@@H]2O[C@H](CO)C(O)C2O)c(=O)n1` (some centres unmarked) [drawing 89], in the data set with Vero, the “Cell Viability 10 uM” value was 84% ± 8% (n = 4) and the “Cell Viability 50 uM” value is on record as 58% ± 2% (n = 4). Also, in the data set with MERV, the inhibition at 10 µM was found to be 99% and the inhibition at 50 µM was 99%.

For `CC(C)OC(=O)[C@H](C)NP(=O)(OC[C@H]1O[C@@H](n2ccc(NO)nc2=O)C(O)C1O)Oc1ccccc1` (some centres unmarked) [drawing 90], in the data set on Vero, the “Cell Viability 10 uM” value was 103% ± 14% (n = 4) and the “Cell Viability 50 uM” value is recorded as 102% ± 36% (n = 4). Further, in the data set on MERV, the inhibition at 10 µM is 29% and the inhibition at 50 µM came out at 85%.

For the molecule `CCCCCCCNC(=O)ONc1ccn([C@@H]2O[C@H](CO)C(O)C2O)c(=O)n1` (some centres unmarked) [drawing 92], in the data set with Vero, the “Cell Viability 10 uM” value is 118% ± 15% (n = 4) and the “Cell Viability 50 uM” value is 91% ± 39% (n = 4). For the same molecule, in the data set on MERV, the inhibition at 10 µM amounted to 86% and the inhibition at 50 µM amounted to 98%.

As usually defined, the EC50 is the concentration needed to bring the measured effect to its halfway point. As a reminder, the pEC50 is −log10 of the EC50, conventionally taken in molar units.
